Measured values: patent publication US10590413B2, “Chiral control” (WAVE LIFE SCIENCES LTD., priority 2012, dated 2020)
pIC50: −log10 of the molar value. Where two headings read alike, the source gives them in different places. [Rp] = phosphorothioate linkage, Rp; [Sp] = phosphorothioate linkage, Sp

Tests used:
Mouse B Cells = settings: mean and std. dev. of at least 3 experiments, compared to wells with no added ODN, cited from earlier work
NK activity = settings: cited from earlier work; for % 2C11 Specific Lysis, Effector:Target 50:1 / % 2C11 Specific Lysis, Effector:Target 100:1: 2C11 targets; for % YAC-1 Specific Lysis, Effector:Target 50:1 / % YAC-1 Specific Lysis, Effector:Target 100:1: YAC-1 targets
[1] = tested on: Apolipoprotein B (Apo B) (NM_000384); assay: Apo B gene expression in Hep3B cells after Lipofectamine 2000 transfection, real-time PCR SYBR green (Example 50); format: cell-based, Homo Sapiens; settings: for IC50 / pIC50: Apo B mRNA, Hep3B cells; for IC50: 24 hours after transfection, read-out: IC50 (nM) (rounded up to single digit); for pIC50: Complete IC50 data evaluated by SYBR green, 24 hours, 3 biological replicates, read-out: IC50
Description: After checking OD all oligonucleotide candidate molecules were diluted to a starting concentration of 20 μM. Multidose forward transfection experiment was setup in 96-well plates using Hep3B cells (ATCC®, Cat. HB-8064™) using Lipofectamine 2000 (Life Technologies, Cat. 11668-019) transfection reagent.
2×10^4 Hep3B cells per well were seeded and incubated for 24 hours at 37° C. in a CO2 incubator in 100 μl of antibiotic free MEM medium (Life Technologies, Cat. 11095098) containing 10% FBS and 1% Glutamax I (Life Technologies, Cat. 35050061). Twelve dilutions were setup in nuclease free water (Table E-16).
For each well, 0.5 μL of Lipofectamine 2000 were mixed with 9.5 μL of Opti MEM I reduced serum medium (Life Technologies, Cat. 31985062) and incubated for 5 minutes. Following incubation, 10 μL of each of the candidates at the reported concentrations was mixed with the diluted Lipofectamine 2000 by gentle pipetting. The mixture was then incubated for 20 minutes at room temperature to allow for complex formation. During this time the cell growth medium was replaced with 80 μL of fresh antibiotic free MEM as previously described. 20 μL of lipid-oligo complex was gently mixed into each well bringing the total volume to 100 μL. The cells were then incubated for 24 hours at 37° C. in a CO2 incubator.
After 24 hour incubation the cell growth medium was removed and RNA was extracted using a Dynabeads mRNA Direct kit (Life Technologies, Cat. 61012) per the instructions provided in the kit manual without modifications. This magnetic Oligo (dT)^25 bead system allows for cost-effective and robust high-throughput poly (A) RNA extraction circumventing DNAse treatment. RNA was eluted in nuclease-free water and stored at −80° C.
10 μL of RNA was used in a 20 μL cDNA synthesis reaction using a High Capacity cDNA Reverse Transcription Kit (Life Technologies, Cat. 4374967) using the kit protocol with RNAse Inhibitor. The reverse transcription was performed in a 96-well format on a C1000 Touch thermal cycler (Biorad, Cat. 185-1196EDU).
Gene expression was measured by quantitative PCR using a LightCycler® 480 SYBR Green I Master (Roche, Cat. 04707516001) on LightCycler 480 Real-Time PCR instrument. Primers for the Homo Sapiens sequences of the target Apolipoprotein B (Apo B) (NM_000384) and endogenous control Glyceralydhyde-3-phosphate dehydrogenase (GAPDH) (NM_002046) were designed and ordered from IDT (Table E-17).
Measurement of the target and endogenous control was performed in separate wells using material from the same cDNA template. SYBR green assay PCR conditions were setup as described in the SYBR Green I Master protocol (Table E-18).
The data is a result of 3 biological replicates. All samples were compared to Naïve untransfected control. The following results were observed when evaluating gene expression by real-time PCR using SYBR green (Table E-19, FIG. 5).

complementary RNA = assay: Thermal denaturation experiment (Tm) of DNA strand with complementary RNA (Example 49); format: binding; settings: duplex with complementary RNA, equimolar 0.5 μM in 1×PBS; first derivative of 254 nm absorbance curve
Description: Each DNA strand was mixed with complementary RNA in equimolar concentration of 0.5 μM in 1×PBS. Total 2.5 mL solution was prepared for each duplex and the mixture was heated at 90° C. for 2 min and was allowed to cool down over the course of several hours. The mixtures were then stored at 4° C. for 2 hrs. Absorbance at 254 nm was recorded at an interval of 0.5 min starting the temperature gradient from 15° C. to 90° C. with rise of 0.5° C./minute, using a Perkin Elmer UV-spectrophotometer equipped with a Peltier unit. The 254 nm absorbance was plotted against the temperature and the Tm values were calculated from the respective first derivative of each curve.

NK Lytic Activity = settings: cited from earlier work; for NK Lytic Activity (LU): human PBMC cultured with ODN 6 μg/ml for 24 hr, lysis of 51Cr-labeled K562 cells; for LU (NK lytic activity): human PBMC, ODN 6 μg/ml for 24 hr, lysis of Cr-labeled K562 cells, cells alone 0.01

1 (DNA GCTAGACGTTAGCGT; chemistry not given here) [Oligonucleotide 1]
Stimulation Index, 3H Uridine (Mouse B Cells; US 6,239,116 Table 1): 6.1 ± 0.8 | Stimulation Index, IgM Production (Mouse B Cells; US 6,239,116 Table 1): 17.9 ± 3.6 | Stimulation Index, 3H Uridine (Mouse B Cells): 6.1 ± 0.8 | % 2C11 Specific Lysis, Effector:Target 50:1 (NK activity; Effector:Target 50:1): 38.7% | % 2C11 Specific Lysis, Effector:Target 100:1 (NK activity; Effector:Target 100:1): 47.2% | % 2C11 Specific Lysis (NK activity; Effector:Target 50:1): 38.7% | % YAC-1 Specific Lysis (NK activity; Effector:Target 50:1): 16.1% | % 2C11 Specific Lysis (NK activity; Effector:Target 100:1): 47.2% | % YAC-1 Specific Lysis (NK activity; Effector:Target 100:1): 24.5% | % YAC-1 Specific Lysis, Effector:Target 50:1 (NK activity; Effector:Target 50:1): 16.1% | % YAC-1 Specific Lysis, Effector:Target 100:1 (NK activity; Effector:Target 100:1): 24.5%

(Sp, Rp, Rp, Sp, Rp, Rp, Sp, Rp, Rp, Sp, Rp, Rp, Sp, Rp, Rp, Sp, Rp, Rp, Sp)-d[GsCsCsTsCsAsGsTsCsTsGsCsTsTsCsGsCsAsCsC] (DNA GCCTCAGTCTGCTTCGCACC; DNA, linkages [Sp][Rp][Rp][Sp][Rp][Rp][Sp][Rp][Rp][Sp][Rp][Rp][Sp][Rp][Rp][Sp][Rp][Rp][Sp] (s phosphorothioate, o phosphodiester), methylation of C not given here) [Oligonucleotide 115]
IC50 [1]: 3 nM | pIC50 [1]: 8.57 | activity compared to Mipomersen (120) ([1]; from Table E-19 IC50, Hep3B): more active | potency compared to the corresponding stereorandom oligonucleotide mixture (Oligonucleotide 118) ([1]; from Table E-19 IC50, Hep3B): more potent | Tm (° C.) ± 0.5 (complementary RNA): 65.2 °C

1829 (DNA ATGACGTTCCTGACGTT; chemistry not given here) [Oligonucleotide 1829]
NK Lytic Activity (LU) (NK Lytic Activity): 0.42 LU | LU (NK lytic activity) (NK Lytic Activity): 0.42 LU

(Sp, Sp, Sp, Sp, Sp, Rp, Rp, Rp, Rp, Rp, Rp, Rp, Rp, Rp, Sp, Sp, Sp, Sp, Sp)-d[GsCsCsTsCsAsGsTsCsTsGsCsTsTsCsGsCsAsCsC] (DNA GCCTCAGTCTGCTTCGCACC; DNA, linkages [Sp]5 [Rp]9 [Sp]5 (s phosphorothioate, o phosphodiester), methylation of C not given here) [Oligonucleotide 104]
IC50 [1]: 4 nM | pIC50 [1]: 8.37 | activity compared to Mipomersen (120) ([1]; from Table E-19 IC50, Hep3B): more active | Tm (° C.) ± 0.5 (complementary RNA): 63.5 °C

3Dd (DNA GAGAACGCTGGACCTTCCAT; Z modified cytosine, further chemistry not given here) [Oligonucleotide 3Dd]
Stimulation Index, 3H Uridine (Mouse B Cells; US 6,239,116 Table 1): 1.2 ± 0.2 | Stimulation Index, IgM Production (Mouse B Cells; US 6,239,116 Table 1): 1.0 ± 0.4 | Stimulation Index, 3H Uridine (Mouse B Cells): 1.2 ± 0.2 | % 2C11 Specific Lysis, Effector:Target 50:1 (NK activity; Effector:Target 50:1): 37.0% | % 2C11 Specific Lysis, Effector:Target 100:1 (NK activity; Effector:Target 100:1): 40.0% | % 2C11 Specific Lysis (NK activity; Effector:Target 50:1): 37.0% | % YAC-1 Specific Lysis (NK activity; Effector:Target 50:1): 17.1% | % 2C11 Specific Lysis (NK activity; Effector:Target 100:1): 40.0% | % YAC-1 Specific Lysis (NK activity; Effector:Target 100:1): 27.0% | % YAC-1 Specific Lysis, Effector:Target 50:1 (NK activity; Effector:Target 50:1): 17.1% | % YAC-1 Specific Lysis, Effector:Target 100:1 (NK activity; Effector:Target 100:1): 27.0%

1779 (DNA ACCATGGACGTACTGTTTCCCCTC; chemistry not given here) [Oligonucleotide 1779]
NK Lytic Activity (LU) (NK Lytic Activity): 0.02 LU | LU (NK lytic activity) (NK Lytic Activity): 0.02 LU

1781 (DNA ACCATGGACGTTCTGTTTCCCCTC; chemistry not given here) [Oligonucleotide 1781]
NK Lytic Activity (LU) (NK Lytic Activity): 0.38 LU | LU (NK lytic activity) (NK Lytic Activity): 0.38 LU

(Rp, Sp, Sp, Sp, Sp, Sp, Sp, Sp, Sp, Sp, Sp, Sp, Sp, Sp, Sp, Sp, Sp, Sp, Rp)-d[GsCsCsTsCsAsGsTsCsTsGsCsTsTsCsGsCsAsCsC] (DNA GCCTCAGTCTGCTTCGCACC; DNA, linkages [Rp]1 [Sp]17 [Rp]1 (s phosphorothioate, o phosphodiester), methylation of C not given here) [Oligonucleotide 106]
IC50 [1]: 4 nM | pIC50 [1]: ~8.41 | activity compared to Mipomersen (120) ([1]; from Table E-19 IC50, Hep3B): more active | Tm (° C.) ± 0.5 (complementary RNA): 61.8 °C

1780 (DNA ACCATGGACGGTCTGTTTCCCCTC; chemistry not given here) [Oligonucleotide 1780]
NK Lytic Activity (LU) (NK Lytic Activity): 0.29 LU | LU (NK lytic activity) (NK Lytic Activity): 0.29 LU

1851 (DNA TCCTGACGTTCCTGACGTT; chemistry not given here) [Oligonucleotide 1851]
NK Lytic Activity (LU) (NK Lytic Activity): 2.32 LU | LU (NK lytic activity) (NK Lytic Activity): 2.32 LU

1776 (DNA ACCATGGACGAACTGTTTCCCCTC; chemistry not given here) [Oligonucleotide 1776]
NK Lytic Activity (LU) (NK Lytic Activity): 0.03 LU | LU (NK lytic activity) (NK Lytic Activity): 0.03 LU

1754 (DNA ACCATGGACGATCTGTTTCCCCTC; chemistry not given here) [Oligonucleotide 1754]
NK Lytic Activity (LU) (NK Lytic Activity): 0.02 LU | LU (NK lytic activity) (NK Lytic Activity): 0.02 LU

1834 (DNA TCTCCCAGCGGGCGCAT; chemistry not given here) [Oligonucleotide 1834]
NK Lytic Activity (LU) (NK Lytic Activity): 0.00 LU | LU (NK lytic activity) (NK Lytic Activity): 0.00 LU

1824 (DNA CACGTTGAGGGGCAT; chemistry not given here) [Oligonucleotide 1824]
NK Lytic Activity (LU) (NK Lytic Activity): 0.01 LU | LU (NK lytic activity) (NK Lytic Activity): 0.01 LU

1761 (DNA TACCGCGTGCGACCCTCT; chemistry not given here) [Oligonucleotide 1761]
NK Lytic Activity (LU) (NK Lytic Activity): 0.05 LU | LU (NK lytic activity) (NK Lytic Activity): 0.05 LU

1823 (DNA GCATGACGTTGAGCT; chemistry not given here) [Oligonucleotide 1823]
NK Lytic Activity (LU) (NK Lytic Activity): 0.08 LU | LU (NK lytic activity) (NK Lytic Activity): 0.08 LU

1842 (DNA TCGTCGCTGTCTCCGCTTCTT; chemistry not given here) [Oligonucleotide 1842]
NK Lytic Activity (LU) (NK Lytic Activity): 0.06 LU | LU (NK lytic activity) (NK Lytic Activity): 0.06 LU

1836 (DNA TCTCCCAGCGCGCGCCAT; chemistry not given here) [Oligonucleotide 1836]
NK Lytic Activity (LU) (NK Lytic Activity): 0.46 LU | LU (NK lytic activity) (NK Lytic Activity): 0.46 LU
